Data on ten compounds can be found in US10851116B2, “Bicyclic amines as novel JAK kinase inhibitors” (LEO Pharma A/S, priority 2017, dated 2020).

Molecules are shown by their SMILES.

Series [1] addresses JAK1 (Homo sapiens (Human), UniProt P23458). Nature of the series: JAK kinase assay (HTRF), JAK1. The following applies: catalytic domain (aa 850-1154), GST-tag, ATP at Km (7 μM). The series is classed as biochemical. As for the experimental part:
(§1) Human baculovirus-expressed JAK1, 2, 3 and TYK2 were purchased from Carna Biosciences, Inc. All four purified enzymes contain only the catalytic domain. JAK1 (aa 850-1154) and TYK2 (aa 871-1187) are expressed with an N-terminally fused GST-tag, and JAK2 and JAK3 with an N-terminally fused His-tag.
(§2) Inhibition of phosphorylation of a synthetic peptide was measured in an HTRF-based assay using the TK substrate-Biotin from the Cisbio HTRFKinEASE TK kit. First, 2 μl of TK solution (TK substrate-biotin in kinase buffer [1× enzymatic buffer from HTRFKinEASE TK kit, 1 mM DTT]) is added to a plate containing 1 μl prediluted compound (final assay concentration DMSO: 0.75%). Then, 5 μl kinase-ATP mix (prepared in kinase buffer) is added to the wells and the plates are incubated at RT for 20-30 min. For all four kinases a concentration of ATP that corresponded to the Km for ATP was used. The final concentrations of buffers, substrate, kinase and ATP were: JAK1: 50 mM Hepes buffer pH 7.0, 0.01% BSA, 10 mM MgCl2, 1 mM DTT, 7 μM ATP, 50 nM SEB, 1 μM TK Substrate-Biotin and 5 ng JAK1; JAK2: 50 mM Hepes buffer pH 7.0, 0.01% BSA, 5 mM MgCl2, 1 mM DTT, 4 μM ATP, 1 μM TK Substrate-Biotin and 0.1 ng JAK2; JAK3: 50 mM Hepes buffer pH 7.0, 0.01% BSA, 5 mM MgCl2, 1 mM DTT, 2 μM ATP, 1 μM TK Substrate-Biotin and 0.3 ng JAK3; TYK2: 50 mM Hepes buffer pH 7.0, 0.01% BSA, 5 mM MgCl2, 1 mM DTT, 13 μM ATP, 50 nM SEB, 1 μM TK Substrate-Biotin and 0.8 ng TYK2. Thereafter, the kinase reaction is stopped by adding 4 μl detection mix (final concentrations: 50 mM Hepes buffer pH 7.0, 0.01% BSA, 0.8 M KF, 20 mM EDTA, 42 nM Streptavidin-XL665 and 1:400 STK Ab Cryptate) and the plates are incubated overnight in the dark. The HTRF signal is read using an Envision plate reader.
In general terms: Time-resolved FRET reads energy transfer from a long-lived donor to a nearby acceptor.

Series [2] addresses JAK2 (Homo sapiens (Human), UniProt O60674). The series is described as follows: JAK kinase assay (HTRF), JAK2. Type of series: biochemical. The following applies: catalytic domain, His-tag, ATP at Km (4 μM). As for the experimental part: as §1, §2
Series [3] concerns the target JAK3 (Homo sapiens (Human), UniProt P52333). The series is described as follows: JAK kinase assay (HTRF), JAK3. Type of series: biochemical. The following applies: catalytic domain, His-tag, ATP at Km (2 μM). As for the experimental part: as §1, §2
Series [4] deals with TYK2 (Homo sapiens (Human), UniProt P29597). The series is described as follows: JAK kinase assay (HTRF), TYK2. Particulars: catalytic domain (aa 871-1187), GST-tag, ATP at Km (13 μM). The series is classed as biochemical. On the procedure: as §1, §2
Sequence of TYK2 (P29597 871-1187): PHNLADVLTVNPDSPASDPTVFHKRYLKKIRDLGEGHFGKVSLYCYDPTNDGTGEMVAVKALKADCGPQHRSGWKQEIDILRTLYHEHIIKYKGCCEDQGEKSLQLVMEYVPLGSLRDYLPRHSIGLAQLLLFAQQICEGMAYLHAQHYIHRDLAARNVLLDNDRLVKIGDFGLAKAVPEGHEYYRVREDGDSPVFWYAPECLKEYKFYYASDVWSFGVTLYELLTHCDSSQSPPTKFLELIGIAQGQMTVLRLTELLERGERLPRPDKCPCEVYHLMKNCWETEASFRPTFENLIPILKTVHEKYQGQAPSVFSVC
Series [5] can be described thus: in vitro metabolic stability in human liver microsomes. The series is classed as in vitro ADME. Particulars: compound 0.5 μM, human liver microsomes 0.5 mg/mL, NADPH, 40 min, 37° C.; for CLint scaled at 0.5 μM: human, liver microsomes, read-out: Human liver microsome Clapp (apparent intrinsic clearance). As for the experimental part:
To assess the in vitro metabolic stability, the compounds (0.5 μM) were incubated in duplicates with human liver microsomes (0.5 mg/mL) in phosphate buffer and NADPH, in 96-well plates for 40 min (37° C.), using a liquid handling robot (Hamilton Microlab Star). Sample aliquots were taken at 0, 5, 10, 20 and 40 min, and dispensed into cold acetonitrile, in order to stop the reactions. The plates were centrifuged for 30 minutes before the samples were analyzed using liquid chromatography coupled to a time-of-flight mass spectrometer (AB Sciex API5600). The compound depletion over time was used to estimate the elimination rate constant, from which the apparent intrinsic clearance, Clapp, was calculated and the values are listed in table 2.
On the technique in general: Liver microsomes are vesicles of endoplasmic reticulum, rich in cytochrome P450 enzymes.

Sequence of JAK3 (P52333 822-1111): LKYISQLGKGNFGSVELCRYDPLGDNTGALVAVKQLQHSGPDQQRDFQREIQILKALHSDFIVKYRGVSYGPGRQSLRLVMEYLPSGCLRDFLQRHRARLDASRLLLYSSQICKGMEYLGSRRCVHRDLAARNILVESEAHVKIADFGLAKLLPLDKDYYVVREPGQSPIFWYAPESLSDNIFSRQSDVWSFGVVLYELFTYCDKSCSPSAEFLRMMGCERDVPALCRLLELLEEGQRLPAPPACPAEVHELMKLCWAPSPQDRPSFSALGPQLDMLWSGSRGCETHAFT
Sequence of JAK1 (P23458 850-1154): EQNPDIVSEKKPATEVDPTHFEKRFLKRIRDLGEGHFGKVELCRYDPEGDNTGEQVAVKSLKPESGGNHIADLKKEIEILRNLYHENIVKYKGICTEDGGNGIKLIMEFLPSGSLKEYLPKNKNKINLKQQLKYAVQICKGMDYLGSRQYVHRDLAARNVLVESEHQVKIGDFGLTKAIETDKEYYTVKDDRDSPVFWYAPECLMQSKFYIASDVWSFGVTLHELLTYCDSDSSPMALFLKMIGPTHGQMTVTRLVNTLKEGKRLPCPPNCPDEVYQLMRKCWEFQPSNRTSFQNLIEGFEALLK
Sequence of JAK2 (O60674 849-1124): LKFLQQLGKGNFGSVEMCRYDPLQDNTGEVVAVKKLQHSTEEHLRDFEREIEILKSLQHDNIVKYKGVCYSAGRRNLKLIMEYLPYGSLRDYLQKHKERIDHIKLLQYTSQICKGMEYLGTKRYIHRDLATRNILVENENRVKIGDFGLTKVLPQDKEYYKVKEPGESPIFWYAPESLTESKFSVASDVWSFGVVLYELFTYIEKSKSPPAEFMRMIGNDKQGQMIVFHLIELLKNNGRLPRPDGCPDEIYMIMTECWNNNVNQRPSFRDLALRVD

Broadly, the EC50 is the concentration at which the effect is half-maximal. A low value points to a more potent agent. Consider `CC[C@@]12CN(c3ncnc4[nH]ccc34)CC[C@@H]1CCN(S(N)(=O)=O)C2` [Example 18, (4aR,8aS)-8a-ethyl-7-(7H-pyrrolo[2,3-d]pyrimidin-4-yl)-3,4,4a,5,6,8-hexahydro-1H-2,7-naphthyridine-2-sulfonamide], for which the EC50 in series [1] was found to be 2 nM; in series [2], 3 nM; in series [3], 2 nM; in series [4], 17 nM. Besides, in series [5], the “Human liver microsome Clapp (apparent intrinsic clearance)” value is on record as 127 mL/min/kg.
In the case of `CC12CN(c3ccc(C#N)cn3)C[C@H]1CCN(c1ncnc3[nH]ccc13)C2` (stereo in doubt) [Example 33, 6-[(3aS,7aS)-3a-methyl-5-(7H-pyrrolo[2,3-d]pyrimidin-4-yl)-1,3,4,6,7,7a-hexahydropyrrolo[3,4-c]pyridin-2-yl]pyridine-3-carbonitrile], the EC50 amounted to 1 nM in series [1], 5 nM in series [2], 8 nM in series [3] and 59 nM in series [4]. Further, the CLint scaled at 0.5 μM in series [5] was determined as 166 mL/min/kg.
For `Cc1cc(N2C[C@H]3CCN(c4ncnc5[nH]ccc45)C[C@@]3(C)C2)ncc1C#N` (racemic) [Example 40, 6-[(3aR*,7aS*)-3a-methyl-5-(7H-pyrrolo[2,3-d]pyrimidin-4-yl)-1,3,4,6,7,7a-hexahydropyrrolo[3,4-c]pyridin-2-yl]-4-methyl-pyridine-3-carbonitrile], in that order: 3 nM, 28 nM, 46 nM, 722 nM and 200 mL/min/kg.
As for `CC[C@]12CN(C=O)CC[C@H]1CCN(c1ncnc3[nH]ccc13)C2` (relative stereo) [Example 16, (4aR*,8aS*)-8a-ethyl-7-(7H-pyrrolo[2,3-d]pyrimidin-4-yl)-3,4,4a,5,6,8-hexahydro-1H-2,7-naphthyridine-2-carbaldehyde], the EC50 in series [1] came to 13 nM; in series [2], 41 nM; in series [3] it was 43 nM; in series [4], 176 nM. Besides, in series [5], the CLint scaled at 0.5 μM worked out at 116 mL/min/kg.
On the same counts, the results for `C[C@]12CN(C#N)CC[C@H]1CCN(c1ncnc3[nH]ccc13)C2` [Example 1, (4aR,8aS)-8a-methyl-7-(7H-pyrrolo[2,3-d]pyrimidin-4-yl)-3,4,4a,5,6,8-hexahydro-1H-2,7-naphthyridine-2-carbonitrile] are 1 nM, 4 nM, 15 nM, 13 nM and 54 mL/min/kg.
As to `C[C@]12CN(c3ccc(C#N)nn3)C[C@H]1CCN(c1ncnc3[nH]ccc13)C2` (racemic) [Example 42], the EC50 in series [1] turned out to be 10 nM; in series [2], 53 nM; in series [3], 78 nM; in series [4], 574 nM. Further, the CLint scaled at 0.5 μM in series [5] came to 53 mL/min/kg.
On the same counts, the results for `Cc1cc(N2CC[C@H]3CCN(c4ncnc5[nH]ccc45)C[C@@]3(C)C2)ncc1C#N` (racemic) [Example 8, 6-[(4aS*,8aR*)-8a-methyl-7-(7H-pyrrolo[2,3-d]pyrimidin-4-yl)-3,4,4a,5,6,8-hexahydro-1H-2,7-naphthyridin-2-yl]-4-methyl-pyridine-3-carbonitrile] are 86 nM, 269 nM, 21 nM, 2110 nM and 200 mL/min/kg.
For `CC[C@]12CN(C#N)CC[C@H]1CCN(c1ncnc3[nH]ccc13)C2` (relative stereo) [Example 23, (4aR*,8aS*)-8a-ethyl-7-(7H-pyrrolo[2,3-d]pyrimidin-4-yl)-3,4,4a,5,6,8-hexahydro-1H-2,7-naphthyridine-2-carbonitrile], the 50% effective concentration (EC50) in series [1] is 2 nM; in series [2], 4 nM; in series [3] it was 14 nM; in series [4], 11 nM. The “Human liver microsome Clapp (apparent intrinsic clearance)” value in series [5] is reported as 200 mL/min/kg.
On to `C[C@]12CN(c3ccc(C#N)cn3)C[C@H]1CCN(c1ncnc3[nH]ccc13)C2` (racemic) [Example 47], for which the EC50 is 5 nM in series [1], 30 nM in series [2], 26 nM in series [3] and 159 nM in series [4]. Besides, the CLint scaled at 0.5 μM in series [5] was 133 mL/min/kg.
For `C[C@]12CN(C#N)C[C@H]1CCN(c1ncnc3[nH]ccc13)C2` [Example 29, (3aS,7aS)-3a-methyl-5-(7H-pyrrolo[2,3-d]pyrimidin-4-yl)-1,3,4,6,7,7a-hexahydropyrrolo[3,4-c]pyridine-2-carbonitrile], in that order: 10 nM, 35 nM, 118 nM, 123 nM and 10 mL/min/kg.
